One series deals with HDAC. The settings on record: literature statement, cited from earlier work.
The subject of series [1] is metastatic renal cell carcinoma. The settings on record: Phase II; cited from earlier work.
Series [2] concerns non-small cell lung cancer. To be noted: Phase II, cited from earlier work.
For series [3] the following is noted: phase I; cited from earlier work.
Series [4] deals with TRX. Put plainly: Northern blot of TRX mRNA in WI38. Type of series: cell-based, human. To be noted: WI38 cultured with 5 μmol/l SAHA, FIG. 4A. The protocol:
Cells were cultured and recovered by centrifugation and RNA was prepared as described (Richon, V. M., et al., 1996, Proc. Natl. Acad. Sci. USA. 93:5705-5708). Total RNA (10 μg) was analyzed by northern blotting using a ^32P-labeled 1.1-kb TBP-2 coding region cDNA probe or a 500 bp cDNA probe for human TRX (Butler et al., 2002, Proc. Natl. Acad. Sci. USA 99:11700-11705). Loading was determined using a ^32P labeled 50-mer 18s rRNA oligonucleotide.

Another series has as its system tumor growth. The settings on record: animals; cited from earlier work.
The test system of series [5] is solid and hematological tumors. To be noted: cited from earlier work.
Series [6] concerns TRX. The series can be described thus: Western blot of TRX protein in WI38. In kind it is cell-based, human. The settings on record: WI38 cultured with 5 μmol/l SAHA, FIG. 4B. The protocol:
(§1) Typically, whole cell lysates were prepared using a buffer (50 mM Tris-HCL pH 8, 300 mM NaCl, 5 mM EDTA, 0.5% NP-40, inhibitor pellet from Roche). Next, 10-25 μg of cell extract were subjected to standard SDS-poly acrylamide gel electrophoresis using 10%, 15%, and 18% criterion gels (Bio-Rad). After transferring to PVDF membrane (Amersham Biosciences), the membranes were blocked with 5% BSA PBS-Tween (0.1%). The membranes were then incubated with specific primary antibody and horseradish peroxidase-labeled secondary antibody. Immunoprecipitation was based on the protocol of Santa Cruz Biotechnology. Briefly, 100-500 μg of total cellular protein were applied and incubated with protein agarose (Ausubel, F. M., et al. Current Protocols in Molecular Biology. 10.16 John Wiley & Sons. 2001).
(§2) TBP-2 antiserum was generated in rabbits (Pocono Farms) using following sequence (peptide) CYM DVI PED HRL ESP (SEQ ID NO:7). Anti-TRX was prepared in the laboratory of Dr. Arne Holmgren (Karolinska institute) as a goat polyclonal antibody. Anti-tubulin was purchased from Oncogene.
(§3) TBP-2 has been identified as a protein that associates with the active (reduced) form of TRX, a dithiol-reducing redox regulatory protein (Nishiyama, A., et al., 1999, J. Biol. Chem. 274, 21645-21650). Binding of TBP-2 to TRX both inhibits the thiol-reducing activity and reduces the level of expression of TRX. […]

In series [7] the test system is WI38-VA13 (SV-40 transformed human lung fibroblast). The series can be described thus: SAHA-induced apoptosis / viability. In kind it is cell-based. An excerpt: (§4) HeLa (human cervical carcinoma), WI38 (human lung fibroblast), WI38-VA13 (SV-40 transformed human lung fibroblast), MCF-7 (human breast adenocarcinoma), T-24 human bladder transitional cell carcinoma), and LNCAP (human prostate adenocarcinoma) were obtained from the American type culture collection and cultured in accordance with the instructions. ARP-1 (human multiple myeloma) was generously provided by Dr. J. Hardoc (Arkansas Cancer Research Center, Little Rock) and cultured as indicated by the source.
(§5) Cells were harvested by trypsinization. Cell number and viability were measured by trypan blue dye exclusion and by Guava PCA-96 via count flex reagent according to the manufacturer's instruction (Guava).

Series [8] has as its system WI38 (human lung fibroblast). The series can be described thus: SAHA-induced apoptosis / viability. In kind it is cell-based. The settings on record: normal fibroblast WI38 cells, FIGS. 2-3.
From the text: as §4, §5

Series [9] deals with WI38-VA13 (SV-40 transformed human lung fibroblast). Put plainly: Cell growth (cell number, trypan blue / Guava). To be noted: VA13 cells, FIG. 2A. In kind it is cell-based.
From the text: as §4, §5

In series [10] the test system is WI38 (human lung fibroblast). Put plainly: Cell growth (cell number, trypan blue / Guava). In kind it is cell-based. The settings on record: WI38 cells, FIG. 2B.
From the text: as §4, §5

In series [11] the test system is acetylated histones in PMN cells. The settings on record: following a single oral dose; cited from earlier work.
The subject of series [12] is TRX. Put plainly: Western blot of TRX protein in VA13. In kind it is cell-based, human. The settings on record: VA13 cultured with 5 μmol/l SAHA, FIG. 4B. The procedure:
as §1, §2, §3

The conditions of series [13]: oral formulation of PB; cited from earlier work.
Series [14] deals with acute myelogenous leukemia. To be noted: a patient with acute myelogenous leukemia; cited from earlier work.

Read-outs that look alike come from different tables or passages of the source.

In the case of `CC(=O)Nc1ccc(C(=O)Nc2ccccc2N)cc1` [CI-994], in the series on HDAC, the “HDAC inhibitory potency (level of activity)” value (shortened to “HDAC inhibitory potency”) was “less potent than the corresponding hydroxamates and cyclic tetrapeptides”. In addition, the “patients with stable disease for greater than 8 weeks” value in series [1] is 58%. Also, in series [2] (32 patients), the “patients having a partial response to therapy” value is 7%. Moreover, the “patients having stable disease for over 8 weeks” value in series [2] is reported as 28%.
With `O=C(/C=C/c1ccc(CN(CCO)CCc2c[nH]c3ccccc23)cc1)NO` [LAQ824], in the series on HDAC, the “HDAC inhibitory potency” value is “nanomolar inhibitor”.
As to `Nc1ccccc1NC(=O)c1ccc(CNC(=O)OCc2cccnc2)cc1` [MS-275, N-(2-aminophenyl)-4-[N-(pyridin-3-yl-methoxycarbonyl)aminomethyl] benzamide], the half-life entry in series [3] was “longer than expected”. For the same molecule, the “HDAC inhibitory potency” value in the series on HDAC was “less potent than the corresponding hydroxamates and cyclic tetrapeptides”.
Consider `O=C(CCCCCCC(=O)Nc1ccccc1)NO` [SAHA, suberoylanilide hydroxamic acid], for which the “TRX mRNA expression” value with TRX [4] is on record as “increased significantly”. In addition, the “toxicity to the animal” value with tumor growth was “no toxicity”. In addition, the drug related deaths entry in series [5] (oral SAHA, patients) is listed as “no drug related deaths”. Moreover, the “longest duration of therapy (durable responses)” value in [5] (oral SAHA, patients) was “over 18 months”. In [5] (oral formulation of SAHA), the oral bioavailability result was “good oral bioavailibity”. Further, the TRX protein levels result is recorded as “increased significantly” in the series with TRX [6] and “quickly decrease to undetectable levels” with TRX [12]. For the same molecule, the “growth arrest and apoptosis” value in series [7] (transformed VA13, FIGS. 2-3) is “induced growth arrest and apoptosis”. Moreover, in [7] (transformed cells, after 24-48 hours of SAHA treatment, FIG. 3A), the “SAHA concentration sufficient to induce significant apoptosis” value was in the range of 1.25 to 2.5 µmol/L. In series [8], the apoptosis result is given as “little or no apoptosis”. For the same molecule, the SAHA dose that induces growth arrest in series [9] and in series [10] was at least 2.5 µM throughout. The “persistence of accumulation of acetylated histones in PMN cells” value in series [11] is “up to 10 hrs”.
Regarding `C/C=C1\NC(=O)[C@H]2CSSCC/C=C/[C@H](CC(=O)N[C@H](C(C)C)C(=O)N2)OC(=O)[C@H](C(C)C)NC1=O` [depsipeptide], the entries for the “HDAC inhibitory potency” value in the series on HDAC and in the series with HDAC (listed as Depsipeptide) were “active at nanomolar levels” and “inhibits HDACs at nanomolar concentrations”, respectively.
For `O=C(O)CCCc1ccccc1` [phenyl butyrate, Phenyl Butyrate], in series [13], the “biologic active plasma concentrations reached” value was 0.5 mM and the oral bioavailability entry is “good bioavailability”. In addition, the “HDAC inhibitory potency” value in the series on HDAC is “millimolar levels of activity”.
As for `CCCC(CCC)C(=O)O` [valproic acid, Valproic Acid], the “HDAC inhibitory potency” value with HDAC is listed as “millimolar levels of activity”. The clinical response entry in [14] is on record as “transient partial remission”.

(Values after patent US20050288227A1, “Use of thioredoxin measurements for diagnostics and treatments” (priority 2002, published 2005).)
